Measured values published in patent US20240174638A1, “HETEROARYL DERIVATIVES AS APELIN RECEPTOR AGONISTS” (RESEARCH TRIANGLE INSTITUTE, priority 2021, published 2024).

Tests used:
[1] = tested on: BLEO-induced lung fibrosis in male C57BL/6 mice; experiment: Chronic (21-day) bleomycin-induced lung fibrosis model, prophylactic (Px) and therapeutic (Tx) arms; type: in vivo, mouse; conditions: for 21-day survival rate: BLEO-instilled mice
in vitro [2] = conditions: human
Mouse plasma protein = conditions: 6 h, 1 μM
[3] = tested on: bleomycin-induced pulmonary fibrosis in C57BL/6 mice; experiment: 21-day non-GLP prophylactic bleomycin-induced pulmonary fibrosis study (oropharyngeal bleomycin; lung weight, BAL leukocytes); type: in vivo, mouse
Experimental: The objective of this non-GLP study was to evaluate the prophylactic efficacy of EXAMPLE 22 in a 21-day model of bleomycin-induced pulmonary fibrosis in mice.
Mice were administered bleomycin (Catalog number C-61703-323-22, lot number D011495AA, Hospira) via oropharyngeal route to induce lung fibrosis.
Bleomycin-induced animals were treated twice daily with either of the three different doses of EXAMPLE 22 or pirfenidone starting from a day prior to disease induction and continued till study termination. Study animals were harvested on day 21 post-bleomycin administration. As an end point analysis, fibrosis symptoms such as body weight, absolute lung weight, lung weight normalized to body weight, and total leukocytes in BAL fluid were evaluated and compared with vehicle-treated mice.
One week prior to study initiation, 88 C57BL/6 mice, six to eight weeks of age were obtained from Simonsen Laboratories (Gilroy, CA). Animals were weighed prior to study initiation and 60 animals were randomized into groups such that mean body weights were similar for the different groups. Remaining animals with lower or higher body weight were not included into the study. Food and water was provided ad libitum, with a light/dark cycle of 12 hours.

Rat plasma protein = conditions: 6 h, 1 μM
[4] = tested on: Escherichia coli WP2 uvrA (pKM101)
in vitro [5] = conditions: mouse, pH 7.4
[6] = relative to Vehicle-treated BLEO-instilled controls
[7] = prophylactic treatment twice daily, 21-day

For `O=C(O)C[C@H](CCN1CCCC(F)(F)C1)NC(=O)c1cc(-c2ccccc2C(F)(F)F)n(-c2nccs2)n1` [Example 22, (3S)-5-(3,3-difluoropiperidin-1-yl)-3-{[1-(1,3-thiazol-2-yl)-5-[2-(trifluoromethyl)phenyl]-1H-pyrazol-3-yl]formamido}pentanoic acid], the “composite Tissue Collagen Fraction (TCF)” value ([1]; 15 mpk/day Px EXAMPLE 22, Vehicle 5.58±0.34%) was 4.51±0.31%, the 21-day survival rate ([1]; 15 mpk Px EXAMPLE 22 (p.o. BID)) was 91% and the 21-day survival rate ([1]; 30 mpk Px EXAMPLE 22 (p.o. BID)) was 91%. For the same molecule, the 21-day survival rate ([1]; 60 mpk Px EXAMPLE 22 (p.o. BID)) was 92%, the 21-day survival rate ([1]; Tx EXAMPLE 22 60 mpk (p.o. BID, from 5 days post-BLEO)) was 100% and the ΔBW ([1]; D0-D21, relative to Vehicle-treated BLEO-instilled controls) was “Neither EXAMPLE 22 nor PIRF affected”. For the same molecule, the “end-point readouts for fibrosis, overall” value ([1]; overall conclusion of the study) was “positive impact on one or more end-point readouts”, the “LW indexed to tibia length (LW:TL)” value [1, 6] was “Neither EXAMPLE 22 nor PIRF affected” and the “endpoint lung OH-P content” value [1, 6] was “Neither EXAMPLE 22 nor PIRF affected”. The “endpoint lung weight (LW)” value [1, 6] was “Neither EXAMPLE 22 nor PIRF affected”, the “final BW” value [1, 6] was “Neither EXAMPLE 22 nor PIRF affected” and the “serial BW” value [1, 6] was “Neither EXAMPLE 22 nor PIRF affected”. The recovery at 6 h, 1 μM (in vitro [2]) was 74.4%, the “% Protein Bound Rep 1” value (Mouse plasma protein) was 92.07% and the “% Protein Bound Rep 2” value (Mouse plasma protein) was 90.96%. The “% Protein Bound Rep 3” value (Mouse plasma protein) was 91.91%, the “Buffer Concentration Rep 1” value (Mouse plasma protein) was 67.1 nM and the “Buffer Concentration Rep 2” value (Mouse plasma protein) was 79.3 nM. For the same molecule, the “Buffer Concentration Rep 3” value (Mouse plasma protein) was 67.6 nM, the “Mean % Protein Bound” value (Mouse plasma protein) was 91.60% and the “Plasma Concentration Rep 1” value (Mouse plasma protein) was 846.3 nM. For the same molecule, the “Plasma Concentration Rep 2” value (Mouse plasma protein) was 877.0 nM, the “Plasma Concentration Rep 3” value (Mouse plasma protein) was 835.8 nM and the “effectiveness compared across doses” value ([3]; 30 mg/kg) was “somewhat more effective”. For the same molecule, the normalized lung weights ([3]; normalized to body weight, prophylactic treatment twice daily, 21-day) was “reduced absolute and normalized lung weights”, the absolute lung weights [3, 7] was “reduced absolute and normalized lung weights” and the “total number of leukocytes from bronchoalveolar lavage (BAL) fluid” value [3, 7] was “decreased total number of leukocytes”. For the same molecule, the “overt symptoms associated with bleomycin administration” value ([3]; prophylactic treatment twice daily, 21-day non-GLP study) was “improved the overt symptoms”, the “% Protein Bound Rep 1” value (Rat plasma protein) was 91.63% and the “% Protein Bound Rep 2” value (Rat plasma protein) was 90.98%. For the same molecule, the “% Protein Bound Rep 3” value (Rat plasma protein) was 92.73%, the “Buffer Concentration Rep 1” value (Rat plasma protein) was 49.3 nM and the “Buffer Concentration Rep 2” value (Rat plasma protein) was 62.3 nM. For the same molecule, the “Buffer Concentration Rep 3” value (Rat plasma protein) was 53.6 nM, the “Mean % Protein Bound” value (Rat plasma protein) was 91.78% and the “Plasma Concentration Rep 1” value (Rat plasma protein) was 588.6 nM. The “Plasma Concentration Rep 2” value (Rat plasma protein) was 690.6 nM, the “Plasma Concentration Rep 3” value (Rat plasma protein) was 737.4 nM and the “Cytotoxicity Code” value [4] was “N”. For the same molecule, the “cytotoxicity to tester strain” value [4] was “No cytotoxicity was observed”, the “dose related increase of revertant colonies” value [4] was “No dose related increase” and the “increase in mean number of revertant colonies vs negative/solvent control” value ([4]; Escherichia coli) was < 2 fold. It also gave a recovery at 6 h, 1 μM (in vitro [5]) of 92.4%.
